Assay results published in paper PMC7692337, “Masked Phenolic-Selenium Conjugates: Potent and Selective Antiproliferative Agents Overcoming P-gp Resistance” (Pharmaceuticals, 2020).
Entries after “also recorded” stand apart in the source; their conditions may differ. Read-outs that look alike come from different tables or passages of the source.

Assays:
SW1573/Pgp = experiment: P-glycoprotein assay, line overexpressing P-gp; type: cell-based, human; conditions: ratio between GI50 values in SW1573/PGP and SW1573 cells; for Rf w Verapamil: with verapamil; for Rf w/o Verapamil: without verapamil
Description: (§1) This assay allows prediction of whether a certain chemotherapeutic agent could develop chemoresistance when behaving as a P-gp substrate, one of the most common efllux-pumps used for the extrusion of cell xenobiotics. For that purpose, a cell line-based assay was used, in particular the lung cancer cell line in its wild type (SW1573), and its variant overexpressing P-gp (Sw1573/Pgp). Moreover, compounds were tested in the presence and in the absence of verapamil, which is known to inhibit P-gp. Chemotherapeutic agents paclitaxel (PTX) and vinblastine (VB) are used herein as reference compounds. In this assay, the resistance factor (Rf) for a certain compound is defined as the ratio of GI50 in the cell line overexpressing P-gp and the wild one (Table 4), high values of Rf denoting that the compound behaves as a P-gp substrate, and thus, chemoresistance through this mechanism will probably take place.

[1] = P-glycoprotein assay, line overexpressing P-gp; type: cell-based, human; conditions: human, 48 h exposure
Description: as §1

HBL-100 (breast) = experiment: Antiproliferative activity, NCI protocol; type: cell-based, human
Description: (§2) Organochalcogen derivatives prepared herein were evaluated in vitro as potential antiproliferative agents, using a panel of six human tumour cell lines: A549 (non-small cell lung), HBL-100 (breast), HeLa (cervix), SW1573 (non-small cell lung), as drug sensitive lines, T-47D (breast) and WiDr (colon) as drug resistant lines. In addition to precursors 2, 6, 7, 13, 14, 17, 19, ebselen and cisplatin (CDDP) were used as reference drugs. […] In both cases, the NCI protocol, with minor modifications, was followed; selected data, including the selectivity index (S.I.) can be found in Table 3 and full data in Supporting Information (Table S1).
(§3) The in vitro antiproliferative activity was assayed using minor modifications of the protocol of the National Cancer Institute (NCI) of the United States against the six human solid tumor cell and the non-tumor cell lines tested.

HeLa (cervix) = experiment: Antiproliferative activity, NCI protocol; type: cell-based, human
Description: as §2, §3

T-47D (breast) = experiment: Antiproliferative activity, NCI protocol; type: cell-based, human; conditions: for GI50: read-out: GI50 T-47D (Breast)
Description: as §2, §3

WiDr (colon) = experiment: Antiproliferative activity, NCI protocol; type: cell-based, human; conditions: for GI50: read-out: GI50 WiDr (Colon)
Description: as §2, §3

[2] = tested on: SW1573 (non-small cell lung); experiment: Antiproliferative activity, NCI protocol; type: cell-based, human
Description: as §2, §3

[3] = tested on: A549 (non-small cell lung); experiment: Antiproliferative activity, NCI protocol; type: cell-based, human
Description: as §2, §3

SW1573 = experiment: P-glycoprotein assay, wild type line; type: cell-based; conditions: Homo sapiens, 48 h exposure
Description: as §1

BJ-hTert (fibroblasts) = experiment: Antiproliferative activity on non-tumour cells, NCI protocol; type: cell-based, human; conditions: non-tumour cell line; for GI50: read-out: GI50 BJ-hTert (Fibroblasts)
Description: as §2, §3

[4] = tested on: six human tumour cell lines (A549, HBL-100, HeLa, SW1573, T-47D, WiDr); experiment: Antiproliferative activity, panel of six human tumour cell lines; type: cell-based; conditions: summary over the tested tumour cell lines, highest tested concentration 100 µM
Description: as §2, §3

[5] = Free radical scavenging (DPPH method); conditions: 30 min incubation, absorbance at 515 nm, read-out: EC50 antiradical activity (DPPH)
Description: (§4) In vitro antioxidant properties of key unprotected phenolic derivatives were analyzed using two different methodologies: free radical scavenging capacity, using the DPPH method (2,2-diphenyl-1-picrylhydrazyl), a HAT (hydrogen atom transfer) procedure, widely-used for both natural and synthetic derivatives, and also the capacity for scavenging H2O2, one of the most common ROS in degenerative diseases, including cancer.
DPPH is a commercially-available stable free radical commonly used for in vitro testing of radical scavenging properties of antioxidants.
Reported methodology was used with minor modifications. To a 60 µM methanolic DPPH solution (1.17 mL), the antioxidant solution (5–7 different solutions, 30 µL) or solvent (control, 30 µL) were added. After 30 min. of incubation in the dark, absorbance was measured at 515 nm, and EC50 values were calculated.

[6] = H2O2 scavenging (phenol red / horseradish peroxidase); conditions: At 50 µM
Description: as §4
Herein, following Bahorun’s methodology, in vitro levels of H2O2 were measured in an indirect fashion, by registering the H2O2-mediated oxidation of phenol red in the presence of horseradish peroxidase, to give a chromophore with a maximum absorption at 610 nm. Accordingly, in the presence of an antioxidant agent, there is an inverse correlation between the observed absorbance, and the scavenging properties. Table 2 depicts the H2O2-scavenging properties of compounds prepared herein, and tested at a final 50 µM concentration.
Reported methodology was used with minor modifications.

[7] = with verapamil (concentration not stated), with verapamil, read-out: GI50 SW1573/PGP w Verapamil
[8] = without verapamil, read-out: GI50 SW1573/PGP w/o Verapamil
[9] = Homo sapiens, HBL-100; read-out: GI50 HBL-100 (Breast)
[10] = Homo sapiens, HeLa; read-out: GI50 HeLa (Cervix)
[11] = Homo sapiens, T47D, drug resistant line
[12] = Homo sapiens, WiDr, drug resistant line
[13] = Homo sapiens, SW1573, Table S1, read-out: GI50 SW1573 (Lung)
[14] = Homo sapiens, A549; read-out: GI50 A549 (Lung)
[15] = with verapamil, read-out: GI50 SW153 w Verapamil
[16] = without verapamil, read-out: GI50 SW1573 w/o Verapamil
[17] = read-out: GI50 HBL-100 (Breast)
[18] = Table S1, read-out: GI50 SW1573 (Lung)

Row | Compound | GI50 (HBL-100 (breast); [9]) [µM] | GI50 (HeLa (cervix); [10]) [µM] | GI50 (T-47D (breast); [11]) [µM] | GI50 (WiDr (colon); [12]) [µM] | GI50 [2, 13] [µM] | GI50 [3, 14] [µM] | GI50 over the tumour cell lines (range, bound or words) [4] | EC50 [5] [µM] | % Scavenging of H2O2 [6] | also measured
1 | N#C[Se]CCc1ccc2c(c1)OCO2 [Compound 36, 2-(3′,4′-Methylendioxyphenyl)ethyl selenocyanate] | 2.1 ± 0.2 | 1.2 ± 0.2 | 1.1 ± 0.3 | 1.3 ± 0.6 | 3.8 ± 0.1 | 1.8 ± 0.7 | low micromolar‒submicromolar activities | – | – | Rf w Verapamil (SW1573/Pgp): 1.7; Rf w/o Verapamil (SW1573/Pgp): 1.6; GI50 at 48 h [1, 7]: 5.3 ± 0.6 µM; GI50 at 48 h [1, 8]: 6.8 ± 0.4 µM; GI50 (SW1573; [15]): 3.1 ± 0.4 µM; GI50 (SW1573; [16]): 4.2 ± 0.7 µM; GI50 (BJ-hTert (fibroblasts); Homo sapiens, Fibroblast): 14 ± 2 µM
2 | N#C[Se]CCCC(=O)NCCc1ccc2c(c1)OCO2 [Compound 45, N-[2′-(3′,4′-Methylenedioxyphenyl)ethyl]-4-selenocyanatobutanamide] | 1.6 ± 0.3 | 0.36 ± 0.09 | 0.4 ± 0.04 | 0.41 ± 0.03 | 0.81 ± 0.02 | 0.41 ± 0.03 | – | – | – | Rf w Verapamil (SW1573/Pgp): 2.3; Rf w/o Verapamil (SW1573/Pgp): 3.1; GI50 at 48 h [1, 7]: 2.5 ± 0.1 µM; GI50 at 48 h [1, 8]: 3.3 ± 0.6 µM; GI50 (SW1573; [15]): 1.1 ± 0.1 µM; GI50 (SW1573; [16]): 1.1 ± 0.2 µM; GI50 (BJ-hTert (fibroblasts); Homo sapiens, Fibroblast): 1.8 ± 0.7 µM; GI50 ([4]; Homo sapiens, read-out: GI50 over the tumour cell lines (range, bound or words)): 0.36 to 1.6 µM
3 | O=C1CCCSSCCCC(=O)Oc2cc(CCO)ccc2O1 [Compound 4, [4”-(2”‘-Hydroxyethyl)-1”,2”-phenylene]-4,4’-dithiobisbutyrate] | > 100 | > 100 | > 100 | > 100 | > 100 | > 100 | – | > 175 | complete loss of ROS scavenging properties; also recorded: --- ^2 | –
4 | N#C[Se]CCC(=O)NCCc1ccc(O)c(O)c1 [Compound 20, N-[2′-(3′’,4′’-Dihydroxyphenyl)ethyl]-3-selenocyanatopropanamide] | – | – | – | – | – | – | moderate antiproliferative properties | 10.8 ± 0.4 | 25.8 ± 1.0% | GI50 (HBL-100 (breast); Homo sapiens, HBL-100, read-out: GI50 HBL-100 (Breast)): 37 ± 2 µM; GI50 (HeLa (cervix); Homo sapiens, HeLa, read-out: GI50 HeLa (Cervix)): 19 ± 8 µM; GI50 (T-47D (breast); Homo sapiens, T47D): 35 ± 1 µM; GI50 (WiDr (colon); Homo sapiens, WiDr): 41 ± 10 µM; GI50 ([2]; Homo sapiens, SW1573, read-out: GI50 SW1573 (Lung)): 24 ± 8 µM; GI50 ([3]; Homo sapiens, A549, read-out: GI50 A549 (Lung)): 28 ± 8 µM
5 | O=C(CC[Se][Se]CCC(=O)NCCc1ccc(O)c(O)c1)NCCc1ccc(O)c(O)c1 [Compound 15, 3,3′-Diselenobis{N-[2′’-(3′’’,4′’’-dihydroxyphenyl)ethyl]propanamide}] | 29 ± 6 | 3.6 ± 1.1 | 39 ± 5 | 31 ± 7 | 5.9 ± 1.3 | 5.4 ± 1.1 | – | 7.8 ± 0.2 | 40.0 ± 3.1% | Rf w Verapamil (SW1573/Pgp): 1.1; Rf w/o Verapamil (SW1573/Pgp): 1.5; GI50 at 48 h [1, 7]: 5.3 ± 0.3 µM; GI50 at 48 h [1, 8]: 5 ± 0.1 µM; GI50 (SW1573; [15]): 5 ± 0.7 µM; GI50 (SW1573; [16]): 3.3 ± 0.4 µM
6 | [NH2][Pt]([NH2])([Cl])[Cl] [CDDP, cisplatin, reference compound] | – | – | – | – | – | – | – | – | – | GI50 (HBL-100 (breast); [17]): 1.9 ± 0.2 µM; GI50 (HeLa (cervix); read-out: GI50 HeLa (Cervix)): 2 ± 0.3 µM; GI50 (T-47D (breast); drug resistant line): 15 ± 2 µM; GI50 (WiDr (colon); drug resistant line): 26 ± 6 µM; GI50 [2, 18]: 3.4 ± 0.7 µM; GI50 ([3]; read-out: GI50 A549 (Lung)): 4.9 ± 0.2 µM; GI50 (BJ-hTert (fibroblasts)): 14 ± 2 µM
7 | N-[2′-(3′’,4′’-Dihydroxyphenyl)ethyl]-3-phenylselenopropanamide [Compound 18] | – | – | – | – | – | – | moderate antiproliferative properties | 23.2 ± 0.6 | 19.0 ± 0.8% | GI50 (HBL-100 (breast); [17]): 34 ± 1 µM; GI50 (HeLa (cervix); read-out: GI50 HeLa (Cervix)): 23 ± 1 µM; GI50 (T-47D (breast); drug resistant line): 71 ± 5 µM; GI50 (WiDr (colon); drug resistant line): 85 ± 21 µM; GI50 [2, 18]: 28 ± 4 µM; GI50 ([3]; read-out: GI50 A549 (Lung)): 33 ± 5 µM
8 | N#C[Se]CCCc1ccc2c(c1)OCO2 [Compound 37, 3-(3’,4’-Methylenedioxyphenyl)propyl selenocyanate] | – | – | – | – | – | – | – | – | – | GI50 HBL-100 (Breast) (HBL-100 (breast)): Not soluble; GI50 HeLa (Cervix) (HeLa (cervix)): Not soluble; GI50 T-47D (Breast) (T-47D (breast); drug resistant line): Not soluble; GI50 WiDr (Colon) (WiDr (colon); drug resistant line): Not soluble; GI50 A549 (Lung) [3]: Not soluble; GI50 BJ-hTert (Fibroblasts) (BJ-hTert (fibroblasts)): Not soluble
9 | NCCc1ccc(O)c(O)c1 [Dopamine, dopamine, reference compound] | – | – | – | – | – | – | – | 11.4 ± 1.2 | 46.1 ± 4.6% | –
10 | O=C(CSSCC(=O)NCCc1ccc(O)c(O)c1)NCCc1ccc(O)c(O)c1 [Compound 8, 2,2′-Dithiobis{N-[2′’-(3′’’,4′’’-dihydroxyphenyl)ethyl]acetamide}] | > 100 | > 100 | > 100 | > 100 | > 100 | > 100 | negligible activities | 12.3 ± 0.5 | 26.5 ± 2.1% | –
11 | O=C(CCCSSCCCC(=O)NCCc1ccc(O)c(O)c1)NCCc1ccc(O)c(O)c1 [Compound 10] | > 100 | > 100 | > 100 | > 100 | > 100 | > 100 | negligible activities | 15.3 ± 0.1 | 11.8 ± 0.5% | –
